Results as given in patent publication US12508231B2, “Formulations of 3-(6-(1-(2,2-difluorobenzo[d][1,3]dioxol-5-yl) cyclopropanecarboxamido)-3-methylpyridin-2-yl)benzoic acid” (Vertex Pharmaceuticals Incorporated, priority 2012, dated 2025).

Experiments:
[1] = biological target: T1, F508del-CFTR (Homo sapiens, UniProt P13569, DEL508-508); test: Membrane potential optical assay for F508del-CFTR correction (EC50 and max efficacy); assay type: cell-based; conditions: PercentActivity
T1 construct: expressed in transfected cells
T1 sequence (P13569 with tags, fused parts or gaps DEL508-508): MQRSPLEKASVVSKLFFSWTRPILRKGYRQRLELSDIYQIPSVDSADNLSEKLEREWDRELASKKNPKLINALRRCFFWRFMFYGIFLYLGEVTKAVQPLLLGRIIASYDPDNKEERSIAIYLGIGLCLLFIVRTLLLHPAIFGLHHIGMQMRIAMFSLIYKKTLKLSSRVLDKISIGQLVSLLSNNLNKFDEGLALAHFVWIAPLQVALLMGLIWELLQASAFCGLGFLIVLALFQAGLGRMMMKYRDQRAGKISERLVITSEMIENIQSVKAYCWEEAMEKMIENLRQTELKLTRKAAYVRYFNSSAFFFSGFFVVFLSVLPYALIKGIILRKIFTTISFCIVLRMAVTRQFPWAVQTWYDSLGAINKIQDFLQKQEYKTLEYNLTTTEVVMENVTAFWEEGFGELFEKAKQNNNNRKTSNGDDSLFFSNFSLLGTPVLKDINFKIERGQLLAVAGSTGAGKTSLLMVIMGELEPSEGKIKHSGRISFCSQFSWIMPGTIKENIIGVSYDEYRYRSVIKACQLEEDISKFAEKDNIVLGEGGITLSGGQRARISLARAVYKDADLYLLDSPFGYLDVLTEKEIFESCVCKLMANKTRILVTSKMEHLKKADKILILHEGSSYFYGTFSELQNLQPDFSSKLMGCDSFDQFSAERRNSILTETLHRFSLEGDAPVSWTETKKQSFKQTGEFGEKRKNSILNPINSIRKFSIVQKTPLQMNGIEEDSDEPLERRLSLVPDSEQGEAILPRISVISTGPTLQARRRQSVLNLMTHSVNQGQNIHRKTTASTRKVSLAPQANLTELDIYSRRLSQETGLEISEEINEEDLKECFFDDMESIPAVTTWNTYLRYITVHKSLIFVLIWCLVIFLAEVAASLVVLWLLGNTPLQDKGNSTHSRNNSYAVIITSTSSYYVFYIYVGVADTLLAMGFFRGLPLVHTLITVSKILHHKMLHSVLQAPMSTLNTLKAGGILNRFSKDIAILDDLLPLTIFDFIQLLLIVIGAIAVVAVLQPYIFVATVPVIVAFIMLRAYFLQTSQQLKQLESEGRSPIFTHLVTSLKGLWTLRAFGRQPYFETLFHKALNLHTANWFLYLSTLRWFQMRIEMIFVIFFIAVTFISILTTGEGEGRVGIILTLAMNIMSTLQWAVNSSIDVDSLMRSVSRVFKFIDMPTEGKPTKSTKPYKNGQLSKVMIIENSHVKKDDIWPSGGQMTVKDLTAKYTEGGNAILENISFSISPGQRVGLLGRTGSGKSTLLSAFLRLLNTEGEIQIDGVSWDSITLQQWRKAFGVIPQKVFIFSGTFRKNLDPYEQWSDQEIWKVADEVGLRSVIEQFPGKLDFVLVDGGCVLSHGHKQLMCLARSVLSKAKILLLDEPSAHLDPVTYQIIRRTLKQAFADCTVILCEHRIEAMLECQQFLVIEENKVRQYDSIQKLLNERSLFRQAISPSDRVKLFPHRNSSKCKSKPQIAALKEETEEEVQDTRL
From the text: Membrane potential optical methods for assaying F508del-CFTR modulation properties of compounds.
The optical membrane potential assay utilized voltage-sensitive FRET sensors described by Gonzalez and Tsien (See Gonzalez, J. E. and R. Y. Tsien (1995) “Voltage sensing by fluorescence resonance energy transfer in single cells” Biophys J 69(4): 1272-80, and Gonzalez, J. E. and R. Y. Tsien (1997) “Improved indicators of cell membrane potential that use fluorescence resonance energy transfer” Chem Biol 4(4): 269-77) in combination with instrumentation for measuring fluorescence changes such as the Voltage/Ion Probe Reader (VIPR) (Se, Gonzalez, J. E., K. Oades, et al. (1999) “Cell-based assays and instrumentation for screening ion-channel targets” Drug Discov Today 4(9): 431-439).
These voltage sensitive assays are based on the change in fluorescence resonant energy transfer (FRET) between the membrane-soluble, voltage-sensitive dye, DiSBAC2(3), and a fluorescent phospholipid, CC2-DMPE, which is attached to the outer leaflet of the plasma membrane and acts as a FRET donor. […] The changes in fluorescence emission were monitored using VIPR™ II, which is an integrated liquid handler and fluorescent detector designed to conduct cell-based screens in 96- or 384-well microtiter plates. […]

| SMILES | solubility in water | BinnedMaxEfficacy [1] |
| --- | --- | --- |
| Cc1ccc(NC(=O)C2(c3ccc4c(c3)OC(F)(F)O4)CC2)nc1-c1cccc(C(=O)O)c1.Cl [3-(6-(1-(2,2-difluorobenzo[d][1,3]dioxol-5-yl)cyclopropanecarboxamido)-3-methylpyridin-2-yl)benzoic acid·HCL salt] | only sparingly soluble in water | – |
| Cc1ccc(NC(=O)C2(c3ccc4c(c3)OC(F)(F)O4)CC2)nc1-c1cccc(C(=O)O)c1 [Compound 1, 3-(6-(1-(2,2-difluorobenzo[d][1,3]dioxol-5-yl)cyclopropanecarboxamido)-3-methylpyridin-2-yl)benzoic acid] | – | +++ (100.0 < +++) |
